Literature values in patent US20030167999A1, “Crystal” (priority 2000, published 2003).

Columns and labels:
[1] = biological target: T1, wild-type hPR (Homo sapiens, UniProt P06401); settings: with respect to progesterone (RBA=100)
T1 sequence (P06401 1-933): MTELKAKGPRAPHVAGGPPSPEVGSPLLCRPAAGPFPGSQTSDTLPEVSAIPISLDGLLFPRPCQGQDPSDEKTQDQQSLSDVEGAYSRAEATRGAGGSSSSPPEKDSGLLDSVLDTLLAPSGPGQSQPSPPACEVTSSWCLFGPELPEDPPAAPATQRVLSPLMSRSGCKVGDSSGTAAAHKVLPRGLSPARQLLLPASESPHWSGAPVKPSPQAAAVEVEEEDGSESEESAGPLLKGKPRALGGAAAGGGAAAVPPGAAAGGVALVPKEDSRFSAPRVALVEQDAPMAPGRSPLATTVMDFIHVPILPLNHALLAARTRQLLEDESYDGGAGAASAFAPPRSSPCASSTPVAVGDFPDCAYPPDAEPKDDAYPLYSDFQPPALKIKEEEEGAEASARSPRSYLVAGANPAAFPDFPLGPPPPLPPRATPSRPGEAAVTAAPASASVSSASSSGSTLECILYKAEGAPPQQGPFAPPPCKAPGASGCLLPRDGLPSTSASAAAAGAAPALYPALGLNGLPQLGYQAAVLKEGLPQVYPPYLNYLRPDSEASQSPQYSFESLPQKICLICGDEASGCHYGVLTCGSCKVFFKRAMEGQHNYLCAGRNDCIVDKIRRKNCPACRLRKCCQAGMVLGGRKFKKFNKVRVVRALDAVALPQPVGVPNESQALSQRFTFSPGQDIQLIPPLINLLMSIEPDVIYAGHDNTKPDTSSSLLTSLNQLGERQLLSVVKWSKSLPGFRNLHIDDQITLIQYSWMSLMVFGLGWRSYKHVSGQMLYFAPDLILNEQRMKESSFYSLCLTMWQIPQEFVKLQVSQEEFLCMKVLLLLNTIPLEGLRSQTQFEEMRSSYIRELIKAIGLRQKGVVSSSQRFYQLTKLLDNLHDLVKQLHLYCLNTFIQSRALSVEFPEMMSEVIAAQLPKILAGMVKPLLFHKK

[2] = biological target: wild-type hAR (Homo sapiens, UniProt P10275)
wild-type hAR, sequence (P10275 whole entry): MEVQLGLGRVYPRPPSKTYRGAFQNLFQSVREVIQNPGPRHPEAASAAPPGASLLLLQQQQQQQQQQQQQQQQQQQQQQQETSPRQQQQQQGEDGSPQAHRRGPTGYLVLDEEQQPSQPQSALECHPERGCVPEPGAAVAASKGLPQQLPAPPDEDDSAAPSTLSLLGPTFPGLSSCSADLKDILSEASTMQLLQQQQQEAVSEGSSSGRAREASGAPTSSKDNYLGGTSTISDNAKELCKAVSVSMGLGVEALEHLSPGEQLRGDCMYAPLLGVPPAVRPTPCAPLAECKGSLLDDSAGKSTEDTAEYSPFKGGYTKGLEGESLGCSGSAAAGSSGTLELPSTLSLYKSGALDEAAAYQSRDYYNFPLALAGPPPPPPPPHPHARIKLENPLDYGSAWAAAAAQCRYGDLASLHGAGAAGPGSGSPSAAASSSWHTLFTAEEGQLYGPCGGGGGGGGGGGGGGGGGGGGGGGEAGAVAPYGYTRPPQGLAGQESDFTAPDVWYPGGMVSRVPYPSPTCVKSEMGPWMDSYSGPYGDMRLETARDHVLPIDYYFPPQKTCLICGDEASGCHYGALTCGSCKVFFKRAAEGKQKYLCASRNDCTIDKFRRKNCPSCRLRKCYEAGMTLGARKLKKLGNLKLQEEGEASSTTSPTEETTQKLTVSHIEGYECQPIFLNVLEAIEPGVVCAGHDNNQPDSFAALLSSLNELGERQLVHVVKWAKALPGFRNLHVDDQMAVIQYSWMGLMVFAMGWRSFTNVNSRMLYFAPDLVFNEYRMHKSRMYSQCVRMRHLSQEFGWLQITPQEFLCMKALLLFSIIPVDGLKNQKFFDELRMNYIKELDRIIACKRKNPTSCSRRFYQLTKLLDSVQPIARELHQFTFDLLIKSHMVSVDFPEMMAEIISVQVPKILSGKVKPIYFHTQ

[3] = biological target: AR receptor of LNCaP (T877A) (Homo sapiens, UniProt P10275, T878A); settings: single point mutation T877A
AR receptor of LNCaP (T877A), sequence (P10275 whole entry T878A): as the sequence (P10275 whole entry) above, with T878A counted along it

[4] = biological target: hAR mutant L707R (Homo sapiens, UniProt P10275, L708R); settings: Scatchard plot analysis
hAR mutant L707R, sequence (P10275 whole entry L708R): as the sequence (P10275 whole entry) above, with L708R counted along it

[5] = biological target: hAR mutation F764S (Homo sapiens, UniProt P10275, F765S)
hAR mutation F764S, sequence (P10275 whole entry F765S): as the sequence (P10275 whole entry) above, with F765S counted along it

[6] = biological target: hAR M742V (Homo sapiens, UniProt P10275, M743V)
hAR M742V, sequence (P10275 whole entry M743V): as the sequence (P10275 whole entry) above, with M743V counted along it

[7] = biological target: hAR M7421 (Homo sapiens, UniProt P10275, M743I)
hAR M7421, sequence (P10275 whole entry M743I, the tested form may be a part): as the sequence (P10275 whole entry) above, with M743I counted along it

[8] = biological target: hAR LBD M787V (Homo sapiens, UniProt P10275, M788V)
hAR LBD M787V, sequence (P10275 whole entry M788V, the tested form may be a part): as the sequence (P10275 whole entry) above, with M788V counted along it

C[C@]1(O)CC[C@H]2[C@@H]3CCC4=CC(=O)CCC4=C3C=C[C@@]21C [R1881, metribolone]
relative binding affinity (RBA) [1]: 190 | relative binding affinity (RBA) [2]: 290 | R1881 binding versus wild type [3]: identical | binding affinity [4]: undetectable | ligand dissociation [5]: rapid ligand dissociation | effect of mutation on binding affinity [6]: dramatically reduce | effect of mutation on binding affinity [7]: dramatically reduce | binding [8]: undetectable or strongly reduced
